Results reported in patent publication US20120252721A1 (priority 2011, published 2012).

How the values were obtained:
[1] = tested on: HCV Con1 subgenomic replicon (GS4.1 cells); test: HCV replicon assay (NS5A ELISA, 72 hrs); type: cell-based; details: Hepatitis C virus
Protocol: Huh-7 cells containing HCV Con1 subgenomic replicon (GS4.1 cells) were grown in Dulbecco's Modified Eagle Medium (DMEM) supplemented with 10% fetal bovine serum (FBS), 2 mM L-glutamine, 110 mg/L sodium pyruvate, 1× non-essential amino acids, 100 U/mL penicillin-streptomycin, and 0.5 mg/mL G418 (Invitrogen). For dose-response testing, the cells were seeded in 96-well plates at 7.5×10^3 cells/well in a volume of 50 μL, and incubated at 37° C./5% CO2. Three hours after plating, 50 μL often 2-fold serial dilutions of compounds (highest concentration, 75 μM) were added, and cell cultures were incubated at 37° C./5% CO2 in the presence of 0.5% DMSO. Alternatively, compounds were tested at a single concentration of 15 μM. In all cases, Huh-7 cells lacking the HCV replicon served as negative control. The cells were incubated in the presence of compounds for 72 hrs after which they were monitored for expression of the NS5A protein by enzyme-linked immunosorbent assay (ELISA). For this, the plates were then fixed for 1 min with acetone/methanol (1:1, v/v), washed twice with phosphate-buffered saline (PBS), 0.1% Tween 20, blocked for 1 hr at room temperature with TNE buffer containing 10% FBS and then incubated for 2 hr at 37° C. with the anti-NS5A mouse monoclonal antibody A-236 (ViroGen) diluted in the same buffer. After washing three times with PBS, 0.1% Tween 20, the cells were incubated 1 hr at 37° C. with anti-mouse immunoglobulin G-peroxidase conjugate in TNE, 10% FBS. After washing as described above, the reaction was developed with O-phenylenediamine (Zymed). The reaction was stopped after 30 min with 2 NH2SO4, and absorbance was read at 492 nm using Sunrise Tecan spectrophotometer. EC50 values were determined from the % inhibition versus concentration data using a sigmoidal non-linear regression analysis based on four parameters with Tecan Magellan software.

in vitro = type: cell-based; details: human; GS4.1 cells, cellular viability
Protocol: For cytotoxicity evaluation, GS4.1 cells were treated with compounds as described above and cellular viability was monitored using the Cell Titer 96 AQeous One Solution Cell Proliferation Assay (Promega). CC50 values were determined from the % cytotoxicity versus concentration data with Tecan Magellan software as described above.

[2] = tested on: HCV genotype 1b Con1 strain subgenomic luciferase replicon (Zluc); test: Luciferase replicon assay, genotype 1b; type: cell-based; details: Hepatitis C virus
Protocol: (§1) The HCV luciferase replicon assay measures the ability of a test compound to inhibit HCV replication in cell culture after 3 days of treatment in a human hepatoma cell line (Huh-7) bearing an HCV replicon containing a luciferase-neomycin phosphotransferase fusion gene. The inhibition of HCV replication was measured by quantification of luciferase protein expression. Briefly, Huh-7 cells containing either the HCV genotype 1a H77 strain or genotype 1b Con1 strain subgenomic luciferase replicon (H1a-luc or Zluc, respectively) were grown in DMEM containing glucose, L-glutamine and sodium pyruvate, 10% fetal bovine serum (FBS), 100 IU/mL penicillin, 100 μg/mL streptomycin, 2 mM GlutaMAX, non-essential amino acids and 0.25 (H1a-luc) or 0.5 (Zluc) mg/mL G418. GlutaMAX was obtained from Invitrogen, Corp.; all other media reagents were obtained from Mediatech, Inc. For dose-response testing, the cells were seeded in 96-well plates at 1×10^4 (H1a-luc) or 7.5×10^3 (Zluc) cells/well in a volume of 50 μL, and incubated at 37° C./5% CO2. Three hours after plating, 50 μL of ten 5-fold serial dilutions of compound were added, and cell cultures were incubated at 37° C./5% CO2 for 72 hours. In all cases, Huh-7 cells lacking the HCV replicon served as negative control. To assess luciferase expression, the media/compound was removed from the plates and ONE-glo Luciferase assay reagent (Promega) was added to each well. The assay plates were shaken for 3 minutes at room temperature and luciferase activity for each well was measured with a 1 sec read time on the Victor^3V multilabel counter using a 700 nm cut-off filter (Perkin Elmer). EC50 values were calculated from dose response curves from the resulting best-fit equations determined by Microsoft Excel and XLfit 4.1 software.

[3] = tested on: HCV genotype 1a H77 strain subgenomic luciferase replicon (H1a-luc); test: Luciferase replicon assay, genotype 1a; type: cell-based; details: Hepatitis C virus, read-out: EC50 1a
Protocol: Drug titration analysis was performed using the luciferase replicon assay described herein.
as §1

H1a-luc or Zluc cells = test: in vitro; type: cell-based, human; details: Table 1B, cellular viability
Protocol: (§2) For cytotoxicity evaluation, HPC cells were treated with compounds as described above in the absence of the genotype 2a virus and cellular viability was monitored using the Cell Titer 96 AQueous One Solution Cell Proliferation Assay (Promega). Plates were then read at 490 nm in a Victor^3V 1420 multilabel counter (Perkin Elmer) and CC50 concentrations were determined using Microsoft Excel and XLfit 4.1 software.
as §2, with “H1a-luc or Zluc” for “HPC”, “above” for “above in the absence of the genotype 2a virus”

| SMILES | EC50 [1] | CC50 (in vitro) | EC50 [2] | EC50 [3] | CC50 (H1a-luc or Zluc cells) |
| --- | --- | --- | --- | --- | --- |
| COC(=O)N[C@H](C(=O)N1CCCC1c1ncc(-c2cc3sc(-c4ncc(-c5c[nH]c([C@@H]6CCCN6C(=O)[C@@H](NC(=O)OC)C(C)C)n5)s4)cc3s2)[nH]1)C(C)C (stereo partly drawn) [Compound A130] | < 1 nM | > 75000 nM |  |  |  |
| COC(=O)N[C@H](C(=O)N1CCC[C@H]1C(=O)Nc1cn2cc(-c3ccc(NC(=O)CNC(=O)[C@H](NC(=O)OC(C)(C)C)c4ccccc4)cc3)sc2n1)C(C)C [Compound A147] | 10 to 100 nM | > 75000 nM |  |  |  |
| COC(=O)N[C@H](C(=O)N1CCC[C@H]1c1ncc(-c2ccc(-c3cn4cc(NC(=O)CNC(=O)[C@H](NC(=O)OC(C)(C)C)c5ccccc5)nc4s3)cc2)[nH]1)C(C)C [Compound A148] | 1 to 10 nM | > 75000 nM |  |  |  |
| COC(=O)N[C@H](C(=O)N1CCC[C@H]1C(=O)Nc1cn2cc(-c3cccc(NC(=O)[C@@H]4CCCN4C(=O)[C@H](NC(=O)OC)c4ccccc4)c3)sc2n1)C(C)C [Compound A149] | 10 to 100 nM | 10000 to 75000 nM |  |  |  |
| COC(=O)N[C@H](C(=O)N1CCC[C@H]1c1ncc(-c2ccc(-c3cn4cc(NC(=O)[C@@H]5CCCN5)nc4s3)cc2)[nH]1)C(C)C [Compound A150] | 10 to 100 nM | 10000 to 75000 nM |  |  |  |
| COC(=O)N[C@H](C(=O)N1CCCC1c1ncc(-c2ccc(-c3csc4c(-c5cnc(C6CCCN6C(=O)OC(C)(C)C)[nH]5)csc34)cc2)[nH]1)C(C)C (stereo partly drawn) [Compound A151] | < 1 nM | 10000 to 75000 nM |  |  |  |
| CC(C)(C)OC(=O)N1CCCC1c1ncc(-c2cn3cc(-c4ccc(Cl)cc4)sc3n2)[nH]1 (stereo not drawn) [Compound A152] | > 100 nM | 10000 to 75000 nM |  |  |  |
| COC(=O)N[C@H](C(=O)N1CCCC1c1ncc(-c2cn3cc(-c4ccc(Cl)cc4)sc3n2)[nH]1)C(C)C (stereo partly drawn) [Compound A153] | 10 to 100 nM | 10000 to 75000 nM |  |  |  |
| COC(=O)N[C@H](C(=O)N1CCCC1c1ncc(-c2ccc(-c3ccc(-c4nc5sccn5c4Cl)cc3)cc2)[nH]1)C(C)C (stereo partly drawn) [Compound A154] | 10 to 100 nM | 10000 to 75000 nM |  |  |  |
| COC(=O)N[C@H](C(=O)N1CCC[C@H]1c1ncc(-c2ccc(-c3csc4c(Br)csc34)cc2)[nH]1)C(C)C [Compound A155, [(S)-1-((S)-2-{4-[4-(6-bromo-thieno[3,2-b]thiophen-3-yl)-phenyl]-1H-imidazol-2-yl}-pyrrolidine-1-carbonyl)-2-methyl-propyl]-carbamic acid methyl ester] | 10 to 100 nM | 10000 to 75000 nM |  |  |  |
| COC(=O)N[C@H](C(=O)N1CCC[C@H]1c1cc(-c2ccc(-c3cn4cc(NC(=O)[C@@H]5CCCN5C(=O)[C@H](NC(=O)OC(C)C)c5ccccc5)nc4s3)cc2)[nH]n1)C(C)C [Compound A156] | < 1 nM | > 75000 nM |  |  |  |
| CC(C)(C)OC(=O)N1CCCC1c1nc(-c2ccc(-c3cn4cc(-c5ccc(-c6cnc([C@@H]7CCCN7C(=O)OC(C)(C)C)[nH]6)cc5)sc4n3)cc2)c[nH]1 (stereo partly drawn) [Compound A157] | 10 to 100 nM | > 75000 nM |  |  |  |
| CC(C)(C)OC(=O)N1CCC[C@H]1c1ncc(-c2ccc(-c3cn4c(-c5ccccc5)csc4n3)cc2)[nH]1 [Compound A158] | > 100 nM | 10000 to 75000 nM |  |  |  |
| COC(=O)N[C@H](C(=O)N1CCCC1c1nc(-c2ccc(-c3cc4sc(-c5ccc(-c6cnc([C@@H]7CCCN7C(=O)[C@@H](NC(=O)OC)C(C)C)[nH]6)cc5)cc4s3)cc2)c[nH]1)C(C)C (stereo partly drawn) [Compound A159] | < 1 nM | > 75000 nM |  |  |  |
| COC(=O)N[C@H](C(=O)N1CCCC1c1ncc(-c2ccc(-c3cn4ccsc4n3)cc2)[nH]1)C(C)C (stereo partly drawn) [Compound A160] | 10 to 100 nM | > 75000 nM |  |  |  |
| CC(C)(C)OC(=O)N1CCCC1c1ncc(-c2ccc(-c3nc4sccn4c3Cl)cc2)[nH]1 (stereo not drawn) [Compound A161] | > 100 nM | > 75000 nM |  |  |  |
| COC(=O)N[C@H](C(=O)N1CCCC1c1ncc(-c2ccc(-c3cn4c(-c5ccccc5)csc4n3)cc2)[nH]1)C(C)C (stereo partly drawn) [Compound A162] | 1 to 10 nM | 10000 to 75000 nM |  |  |  |
| COC(=O)N[C@H](C(=O)N1CCCC1c1nc(-c2ccc(-c3c(C(=O)OC)[nH]c4c(-c5ccc(-c6cnc(C7CCCN7C(=O)[C@@H](NC(=O)OC)C(C)C)[nH]6)cc5)csc34)cc2)c[nH]1)C(C)C (stereo partly drawn) [Compound A163] | < 1 nM | > 75000 nM |  |  |  |
| COC(=O)N[C@H](C(=O)N1CCCC1c1ncc(-c2ccc(-c3csc4cc(C(=O)OC)[nH]c34)cc2)[nH]1)C(C)C (stereo partly drawn) [Compound A164] | 10 to 100 nM | 10000 to 75000 nM |  |  |  |
| COC(=O)N[C@H](C(=O)N1CCCC1c1ncc(-c2ccc(-c3cc4sc(Br)cc4s3)cc2)[nH]1)C(C)C (stereo partly drawn) [Compound A168] | 10 to 100 nM | 10000 to 75000 nM |  |  |  |
| COC(=O)N[C@H](C(=O)N1CCC[C@H]1c1ncc(-c2ccc(-c3csc4c(-c5cnc([C@@H]6CCCN6C(=O)[C@H](NC(=O)OC)c6ccccc6)[nH]5)csc34)cc2)[nH]1)C(C)C [Compound A200, [(S)-1-((S)-2-{4-[4-(6-{2-[(S)-1-((R)-2-methoxycarbonylamino-2-phenyl-acetyl)-pyrrolidin-2-yl]-3H-imidazol-4-yl}-thieno[3,2-b]thiophen-3-yl)-phenyl]-1H-imidazol-2-yl}-pyrrolidine-1-carbonyl)-2-methyl-propyl]-carbamic acid methyl ester] |  |  | < 0.1 nM | 0.1 to 1 nM | > 75000 nM |
| COC(=O)N[C@H](C(=O)N1CCCC1c1nc(-c2cc3sc(-c4ccc(-c5cnc([C@@H]6CCCN6C(=O)[C@@H](c6ccccc6)N6CCCCC6)[nH]5)cc4)cc3o2)c[nH]1)C(C)C (stereo partly drawn) [Compound A212] |  |  | < 0.1 nM | < 0.1 nM | 10000 to 75000 nM |
| COC(=O)N[C@H](C(=O)N1CCCC1c1ncc(-c2ccc(-n3ccc4c(-c5cnc(C6CCCN6C(=O)[C@@H](NC(=O)OC)C(C)C)[nH]5)csc43)c(Cl)c2)[nH]1)C(C)C (stereo partly drawn) [Compound A213] |  |  | < 0.1 nM | 0.1 to 1 nM |  |
| COC(=O)N[C@H](C(=O)N1CCC[C@H]1c1nc2ccc(-c3cc4sc(-c5ccc(-c6c[nH]c([C@@H]7CCCN7C(=O)[C@H](NC(=O)OC)c7ccccc7)n6)cc5)cc4s3)cc2[nH]1)C(C)C [Compound A215, [(S)-1-((S)-2-{6-[5-(4-{(S)-2-[1-((R)-2-methoxycarbonylamino-2-phenyl-acetyl)-pyrrolidin-2-yl]-1H-imidazol-4-yl}-phenyl)-thieno[3,2-b]thiophen-2-yl)-1H-benzoimidazol-2-yl}-pyrrolidine-1-carbonyl)-2-methyl-propyl]-carbamic acid methyl ester] |  |  | < 0.1 nM | < 0.1 nM | > 75000 nM |
| COC(=O)N[C@H](C(=O)N1CCCC1c1ncc(-c2cc3sc(-c4ccc(-c5cnc([C@@H]6CCCN6C(=O)[C@H](NC(=O)OC)c6ccccc6)[nH]5)cc4)cc3s2)[nH]1)C(C)C (stereo partly drawn) [Compound A217] |  |  | < 0.1 nM | < 0.1 nM | > 75000 nM |
